Values of other authors, collected in patent US20160303177A1, “NUTRITIONAL SUPPLEMENT” (priority 2015, published 2016).
One block for each compound: values may come before it.

Legend:
[1] = 400 mg at three times per day
[2] = 600 mg prior to exercise
[3] = training in set of 8-15 repetitions
[4] = washout period
[5] = 300 mg per day
[6] = 5 grams at three times a day along with other medications
[7] = 17.25 grams per day, cyclists
[8] = given before animals were cardiac stressed
[9] = 300 mgs of EGCG
[10] = two grams of L-Carnitine with 80 mg of carbohydrates
[11] = 6 grams
[12] = diseased hearts, 3 grams a day
[13] = 8 grams of L-Citrulline with 10 grams of carbohydrate
[14] = 1500 mg per day for 6 weeks, mild to moderate erectile dysfunction
[15] = healthy individuals
[16] = 500 milligrams of nitrate, runners
[17] = 11.2 mmol/kg of nitrate

Structure (SMILES): C[N+](C)(C)CCOP(=O)([O-])OC[C@H](O)CO [Alpha GPC, Alpha Glycerylphosphorylcholine]
cognition in mild to moderate Alzheimer's dementia [1]: cognitive improvement
peak increase in peak force production during resistance exercise [2]: 14%

time after supplementation still in the muscles at higher levels [4]: 8 weeks
Structure (SMILES): NCCC(=O)O [Beta-Alanine]
additional reps in the gym [3]: one to two additional reps

half-life (in vivo): 5.8 to 8.10 h
increase in CoQ10 concentrations (supplementation with 90-120 mg): 50-150%
Structure (SMILES): COC1=C(OC)C(=O)C(C/C=C(\C)CC/C=C(\C)CC/C=C(\C)CC/C=C(\C)CC/C=C(\C)CC/C=C(\C)CC/C=C(\C)CC/C=C(\C)CC/C=C(\C)CCC=C(C)C)=C(C)C1=O [CoQ 10, Coenzyme Q10]
fatigue during exertion [5]: reduce fatigue during the late portions of exertion

Structure (SMILES): O=C[C@H](O)[C@H](O)[C@H](O)CO [D-Ribose]
fibromyalgia symptoms [6]: marked decrease in symptoms
rates of ATP production [7]: increased the rates of ATP production back to pre-exercise levels
held out longer before ischemia compared to placebo [8]: 25%

Structure (SMILES): O=C(O[C@@H]1Cc2c(O)cc(O)cc2O[C@@H]1c1cc(O)c(O)c(O)c1)c1cc(O)c(O)c(O)c1 [EGCG, epigallocatechin gallate]
source of energy when taken with a meal [9]: a greater proportion of energy comes from dietary fat rather than carbohydrate

Structure (SMILES): C[N+](C)(C)C[C@H](O)CC(=O)[O-] [L-Carnitine]
fat burning [10]: increased fat burning
increase in muscle carnitine content [10]: 21%

Structure (SMILES): NC(=O)NCCC[C@H](N)C(=O)O [L-Citrulline]
ATP production [11]: increased ATP production
ammonia production [11]: reduced ammonia production
muscle protein synthesis [11]: increased muscle protein synthesis
reduction of creatine depletion [11]: 28%
blood pressure [12]: decrease in blood pressure
exercise abilities [12]: increase in exercise abilities
right ventricular ejection fraction [12]: increase in right ventricular ejection fraction
delay in fatigue [13]: statistically significant delay in fatigue
men with increase in erection hardness [14]: 50%

Structure (SMILES): O=[N+]([O-])O [nitrate]
reduced VO2 (oxygen consumption) ([15]; 0.1 mmol/kg of nitrate): 5.4%
increase in time to fatigue ([15]; 6.2 mmol/kg of nitrate): 15%
increase in energy efficiency [15]: 7.1%
improvement of 5K time [16]: 41 s
reduction of oxygen muscle extraction [17]: 19%
